Biological target: T1, KV4.2 (Rattus norvegicus, UniProt Q63881)
T1 sequence (Q63881 1-630): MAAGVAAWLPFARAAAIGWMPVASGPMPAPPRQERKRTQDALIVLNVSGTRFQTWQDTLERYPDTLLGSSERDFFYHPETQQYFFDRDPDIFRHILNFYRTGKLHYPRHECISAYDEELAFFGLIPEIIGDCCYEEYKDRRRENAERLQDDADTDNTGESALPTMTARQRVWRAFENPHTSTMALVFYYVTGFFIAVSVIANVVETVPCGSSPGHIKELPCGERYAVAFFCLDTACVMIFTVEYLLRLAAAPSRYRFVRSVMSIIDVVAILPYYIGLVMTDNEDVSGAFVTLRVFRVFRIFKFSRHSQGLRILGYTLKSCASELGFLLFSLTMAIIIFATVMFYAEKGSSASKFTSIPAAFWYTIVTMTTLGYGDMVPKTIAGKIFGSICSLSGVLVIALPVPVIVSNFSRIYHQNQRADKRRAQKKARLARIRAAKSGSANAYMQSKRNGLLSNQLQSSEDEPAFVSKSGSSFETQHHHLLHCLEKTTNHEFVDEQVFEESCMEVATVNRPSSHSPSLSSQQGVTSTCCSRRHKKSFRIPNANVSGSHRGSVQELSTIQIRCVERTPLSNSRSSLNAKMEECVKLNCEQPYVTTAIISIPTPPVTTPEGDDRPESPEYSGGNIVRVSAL
Assay: Two-electrode voltage clamp of KV4.2 in Xenopus oocytes
Format: cell-based, human
Conditions: 10 µM CP1
Text: Since CP1 has a similar effect to PIP2 in mediating VSD-pore coupling in KCNQ channels, we tested if CP1 has effects on other ion channels that are also sensitive to PIP2 or are voltage activated and share general structural features of the VSD and the pore with KCNQ. […] On the other hand, NaV1.5 and KV4.2 are voltage-gated ion channels.
Fig. 6 Effects of CP1 on other ion channels expressed in Xenopus oocytes. a Currents of Kir1.1, CaV1.2, NaV1.5, hERG, and KV4.2 before and after application of 10 µM CP1, respectively. The voltages for holding, test, and returning pulses were Kir1.1, 0 mV, −100 to +60 mV, 0; CaV1.2, −100 mV, −100 to +60, −100 mV; NaV1.5, −100, −120 to +40 mV, −120 mV; hERG, −80 mV, −90 to +60 mV, −60 mV; KV4.2, −80 mV, −100 mV to +80 mV, −40 mV; HCN4, −30 mV, −30 to −140 mV, −120 mV. b Current–voltage relations of Kir1.1 channel in the absence or presence of 10 µM CP1 (n = 7). c–g G–V relations of indicated channels with and without 10 µM CP1. The ΔV1/2 of G–V relations (mV) are CaV1.2, 3.38 ± 0.71 mV (c); NaV1.5, −2.26 ± 0.95 mV (d); hERG, 6.85 ± 1.81 mV (e); KV 4.2, −2.26 ± 2.88 mV (f); HCN4, 17.13 ± 1.59 mV (g).
Complementary DNA (cDNA) encoding human KCNQ1 (UniProtKB/Swiss‐Prot under accession no. P51787), KCNQ2 (O43526), KCNQ3 (O43525), KCNE1 (P15382), Kir1.1 (P48048), hERG (Q12809), KV4.2 (Q63881), NaV1.5 (Q14524), NaV β1 (Q07699), CaV1.2 (Q13936), CaV β1a (Q02641), CaV α2/δ1 (P54289), and HCN4 (Q9Y3Q4) were subcloned into oocyte expression vectors, respectively. Site-directed mutations of the KCNQ1 channel were all produced by overlap extension polymerase chain reaction (PCR) with high-fidelity Pfu polymerase (Stratagene, CA). The presence of the desired mutation was verified by sequencing the PCR-amplified regions. All the primer sequences used in this study are available in Supplementary Table 1. The complementary RNA (cRNA) of all these channels and mutations was transcribed in vitro with the T3, T7, or SP6 polymerase mMessage mMachine kit (Invitrogen, Thermo Fisher Scientific, MO).
The whole-oocyte ionic currents were recorded with a GeneClamp 500B amplifier (Axon Instruments, CA) or iTEV90 amplifier (HEKA, Germany) and then sampled at 1 kHz and low-pass-filtered at 2 kHz. The Patchmaster software (HEKA, Germany) was used to acquire data. The Kir1.1 current was recorded with a high K^+ bath solution containing (in mM) 96 KCl, 4 NaCl, 1 CaCl2, 2 MgCl2, and 10 HEPES, pH 7.3–7.4. The HCN4 current was recorded in ND66 solution containing (in mM) 66 NaCl, 32 KCl, 1.8 CaCl2, 1 MgCl2, and 5 HEPES, pH 7.6. All the other potassium channels were recorded in ND96 solution. The currents of CaV1.2 channel were recorded in 40 mM Ba^2+ bath solution containing (in mM) 40 Ba(OH)2, 50 TEA-OH, 2 KOH, and 5 HEPES, adjusted to pH 7.4 with methanesulfonic acid. CP1 (DISODIUM 5-BROMO-2-[9-CHLORO-3-(SULFONATOOXY) NAPHTHO [1,2-B] THIEN-2-YL]-1H-INDOL-3-YL SULFATE, Sigma-Aldrich, MO) and Chromanol 293B (Sigma-Aldrich, MO) were dissolved in bath solutions. All the chemicals were purchased from Sigma-Aldrich. To measure the I–V relations of the Kir1.1 channel, the test voltage was set from −100 to +60 mV for 1 s with 20-mV increments. The test pulses were stepped from a holding potential of 0 mV and then stepped back to 0 mV. The HCN4 currents were recorded by a test pulse between −30 and −140 mV in 10-mV step from a holding potential of −30 mV. For all the other potassium channels and CaV1.2 channel, the holding potential was −80 or −100 mV, and the test pulse was applied with 10-mV increment, which was followed with a repolarization pulse at −40 mV before returning to the holding potential. The durations of test and the repolarization pulse vary for different channels to allow the activation and deactivation of the channel to reach their steady states.

ΔV1/2 of G–V relations: −2.26 ± 2.88 mV
G/Gmax Mean (Fig. 6f) (voltage 0 mV): 0.3489
G/Gmax Mean (Fig. 6f) (voltage 10 mV): 0.4229
G/Gmax Mean (Fig. 6f) (voltage 20 mV): 0.5032
G/Gmax Mean (Fig. 6f) (voltage 30 mV): 0.5901
G/Gmax Mean (Fig. 6f) (voltage 40 mV): 0.6796
G/Gmax Mean (Fig. 6f) (voltage 50 mV): 0.7731
G/Gmax Mean (Fig. 6f) (voltage 60 mV): 0.8507
G/Gmax Mean (Fig. 6f) (voltage 70 mV): 0.9365
G/Gmax Mean (Fig. 6f) (voltage 80 mV): 1.0000
G/Gmax Mean (Fig. 6f) (voltage -10 mV): 0.2734
G/Gmax Mean (Fig. 6f) (voltage -20 mV): 0.2218
G/Gmax Mean (Fig. 6f) (voltage -30 mV): 0.1858
G/Gmax Mean (Fig. 6f) (voltage -40 mV): 0.1969
G/Gmax Mean (Fig. 6f) (voltage -50 mV): 0.2134
Structure (SMILES): O=S(=O)([O-])Oc1c(-c2sc3c(ccc4cccc(Cl)c43)c2OS(=O)(=O)[O-])[nH]c2ccc(Br)cc12.[Na+].[Na+] [CP1, DISODIUM 5-BROMO-2-[9-CHLORO-3-(SULFONATOOXY) NAPHTHO [1,2-B] THIEN-2-YL]-1H-INDOL-3-YL SULFATE]
